The source of these data is patent US20250213524A1, “COMPOSITIONS FOR USE” (Amazentis SA, priority 2023, published 2025).

The test system of the assay is human sperm. Nature of the assay: Ex vivo incubation of human semen samples with urolithin A, motility by computer-assisted semen analysis (CEROS II). Type of assay: cell-based. The note with it: for Motile sperm concentration (million/mL), UA vs. DMSO: 4 hours incubation at 36° C.; for Motile sperm concentration (million/mL), UA vs. DMSO / BCF Beat Cross-Frequency, UA vs. DMSO / Rapid progressive motile sperm concentration (million/mL), UA vs. DMSO: increase vs. DMSO; for Rapid progressive motile sperm concentration (million/mL), UA vs. DMSO: rapid progressive motility >25 μm/s; for motile sperm concentration: increase. The method, then:
Sperm samples from five healthy men donors were processed within 1 hour of collection. 3 samples were either diluted 1:1 in culture media containing DMSO or urolithin A (UA) (0.05, 0.1, 0.5, and 2.0 μM in DMSO). For these samples, all treatments contained the same amount of DMSO. Two samples were pre-diluted in culture media, which was then diluted in the treatment solutions, immediately. This was to decrease the eventual effect of seminal plasma. Samples were incubated for 4 hours with the indicated UA doses. For the study, semen samples were obtained by masturbation after 2-7 days of ejaculatory abstinence, according to World Health Organization Guidelines (https://www.who.int/publications/i/item/9789240030787). Samples were collected into sterile wide-mouth polypropylene containers tested for sperm toxicity (BIRR semen collection container, IVF store code 113102). After collection, samples were kept in an air incubator for 1 hour, until semen liquefaction. For experiments, a 50 mM stock Urolithin A (UA) solution was prepared in Dimethyl Sulfoxide (DMSO, Fisher Scientific, BP231-100). At the day of the experiments, a working solution was prepared by diluting the 50 mM stock solution 1:1000 in Sperm Washing Medium (FujiFilm Modified HTF Medium with Human Serum Albumin, 5.0 mg/mL, catalog ID: 9983). A blank working solution containing only DMSO was also prepared by diluting DMSO 1:1000 in Sperm Washing Medium. Treatment solutions were then prepared containing 0, 0.1 μM, 0.2 μM, 1.0 μM, and 4.0 μM were prepared as follows: Treatment solutions were then diluted 1:1 with raw semen (samples A, B, and D) or with semen that had been pre-diluted 1:1 in Sperm Washing Medium (samples C and E), so that final achieved treatment concentrations were 0 (blank, DMSO only, 0.05 µM, 0.1 μM, 0.5 μM, and 2.0 µM UA. This was incubated at 36° C. for 4 hours, after which motility was assessed using a CEROS II system for computer-assisted semen analysis (Hamilton Thorne Inc., Beverly, MA, USA). To achieve this, 4-chamber 20 μm Leja slides (IMV International Ref. 025107-025108) were pre-heated at 37° C. 2.5 μL of each sample was pipetted into each chamber, and the Human Motility module of the CEROS II system was used to capture multiple fields (at least 6) in order to determine sperm motility parameters.

The mark [1] stands for this setting: all doses (0.05, 0.1, 0.5, 2.0 μM), 4 hours incubation.

Molecules are shown by their SMILES.

Consider `O=c1oc2cc(O)ccc2c2ccc(O)cc12` [UA, Urolithin A], for which the “Motile sperm concentration (million/mL), UA vs. DMSO” value was determined as 2% (0.05 uM UA), 16.8% (0.1 uM UA), 10.7% (0.5 uM UA) and 21.4% (2 uM UA). Further, the “BCF Beat Cross-Frequency, UA vs. DMSO” value reads like this: (0.05 uM UA, 4 hours incubation, motile sperm) 5%; (0.1 uM UA, 4 hours incubation, motile sperm) 6%; (0.5 uM UA, 4 hours incubation, motile sperm) 9%; (2 uM UA, 4 hours incubation, motile sperm) 7%. The “Rapid progressive motile sperm concentration (million/mL), UA vs. DMSO” value is recorded as 2% (0.05 uM UA, 4 hours incubation); 20% (0.1 uM UA, 4 hours incubation); 10% (0.5 uM UA, 4 hours incubation); 20% (2 uM UA, 4 hours incubation). Further, under setting [1], the “Motile sperm concentration, effect in words” value is “increased at all doses”. In addition, under setting [1], the “Rapid progressive motile sperm concentration, effect in words” value is listed as “increased at all doses”. Also, the “Beat Cross-Frequency, effect in words” value (all doses (0.05, 0.1, 0.5, 2.0 μM), motile sperm, 4 hours incubation) is on record as “an increase by UA at all doses”. For the same compound, the “sperm motility / sperm health, effect in words” value (applied ex vivo to human sperm, especially 0.1 uM to 2 uM) is “increases sperm motility”. The “motile sperm concentration” value by setting is: (highest UA 2 μM dose, 4 hours incubation) 20%; (lower dose of UA 0.05 μM, 4 hours incubation) 2%.
